According to patent US9387211B2 (Cedars-Sinai Medical Center, priority 2010, dated 2016):

Experiments:
[1] = tested on: AtT20 cells stably expressing empty vector (V); assay: Pomc promoter luciferase assay; conditions: highest gefitinib dose (10 μM); control cells
[2] = tested on: AtT20 cells stably expressing empty vector (V); assay: BrdU incorporation by flow cytometry; conditions: 10 μM gefitinib, 24 hours
Description: Fixative was prepared by adding 30 mL of 50 mM glycin solution (pH 2.0) to 70 mL ethanol. Cells were fixed for overnight at −20° C. Cells were washed with PBS, and resuspended in incubation solution with anti-BrdU antibody (1:10) for 30 minutes at 37° C. with gentle agitation. […] Samples were washed with PBS and fluorescence was measured by flow cytometry.

[3] = tested on: AtT20 cells stably expressing empty vector (V); assay: Cell proliferation assay (cell counting)
Description: EGFR WT cells were plated at a density of 2×10^4 per well in 12-well plates with growth medium. Cells were counted by hemocytometer at the indicated times.

[4] = tested on: non-tumor pituitary cell cultures

COc1cc2ncnc(Nc3ccc(F)c(Cl)c3)c2cc1OCCCN1CCOCC1 [gefitinib]
suppression of pomc promoter activity [1]: ~23%
reduction of BrdU incorporation [2]: ~58%
decrease of cell proliferation ([3]; gefitinib 0.1-10 μM, 24 hours, V): not V cell proliferation
cell number ([3]; high dose (10 μM) gefitinib, V cells): not altered
pomc mRNA expression levels ([4]; non-tumor pituitary cell cultures (FIG. 6)): unaltered
normal pituitary function ([4]; normal pituitary (FIG. 5F)): does not affect
